Literature values, collected in patent publication US20060287529A1, “Solid phase synthesis of antitumoral compounds” (priority 2003, published 2006).

Assays:
fertilised sea urchin = fertilised sea urchin assay; background statement
P388 cell line = P388 cell line in culture; background statement
A549 cell line = A549 cell line in culture; background statement
lung cancer cell lines = conditions: acting as a Type IV microtubule poison; background statement

Row | Molecule | inhibition of cell division (fertilised sea urchin) | cytotoxicity (P388 cell line) | cytotoxicity (A549 cell line) | activity in lung cancer cell lines (lung cancer cell lines)
1 | COc1cc(-c2c3n(c4c(=O)oc5cc(O)c(OC)cc5c24)CCc2c-3cc(OC)c(OC)c2OC)ccc1O [lamellarin C] | inhibition of cell division |  |  | 
2 | COc1ccc(-c2c3n(c4c(=O)oc5cc(O)c(OC)cc5c24)CCc2cc(O)c(OC)cc2-3)cc1O [lamellarin L, 8,9-dihydro-3,11-dihydroxy-2,12-dimethoxy-14-(3′-hydroxy-4′-methoxy-phenyl)-6H-[1]benzopyrano[4′,3′:4,5]pyrrolo[2,1-α]isoquinolin-6-one] |  | comparable cytoxicity | comparable cytoxicity | 
3 | COc1ccc(-c2c3c4cc(OC)c(O)cc4oc(=O)c3n3ccc4cc(O)c(OC)cc4c23)cc1O [lamellarin N, 3,10-dihydroxy-2,12-dimethoxy-14-(3′-hydroxy-4′-methoxy-phenyl)-6H-[1]benzopyrano[4′,3′:4,5]pyrrolo[2,1-α]isoquinolin-6-one] |  |  |  | exhibit activity
4 | lamellarin D | inhibition of cell division |  |  | 
5 | lamellarin I |  | comparable cytoxicity | comparable cytoxicity | 
6 | lamellarin K |  | comparable cytoxicity | comparable cytoxicity | 
